Data published in the NIST ThermoML archive (doi:10.1016/j.jct.2010.01.014).
Numbers after ± are expanded uncertainties.

Conditions: Crystal, Calculated from knudsen effusion weight loss

c1ccc2c(c1)Oc1ccccc1S2 [phenoxathiin]
Conditions	vapor or sublimation pressure [kPa]
304.2 K	8.61e-05 ± 1e-05
308.7 K	0.000143 ± 1.7e-05
311.4 K	0.000209 ± 2.3e-05
311.5 K	0.000207 ± 2.6e-05
311.9 K	0.000217 ± 2.4e-05
318.2 K	0.000453 ± 5.2e-05
323 K	0.000771 ± 8.7e-05
324.5 K	0.000927 ± 0.00011

O=C1c2ccccc2-c2ccccc21 [9(9H)-fluorenone]
Conditions	vapor or sublimation pressure [kPa]
300.8 K	1.21e-05 ± 4.9e-06
303.6 K	1.69e-05 ± 6.8e-06
307.9 K	2.79e-05 ± 1.1e-05
309.8 K	3.65e-05 ± 1.5e-05
313 K	5.1e-05 ± 2.1e-05
313.1 K	5.09e-05 ± 2.1e-05
315.1 K	6.16e-05 ± 2.5e-05
323 K	0.000139 ± 5.6e-05
323.1 K	0.000143 ± 5.8e-05
324.5 K	0.000159 ± 6.4e-05
324.7 K	0.000167 ± 6.8e-05
328.4 K	0.000246 ± 9.9e-05
328.6 K	0.000245 ± 9.9e-05
330.9 K	0.000311 ± 0.00013
331.1 K	0.000319 ± 0.00013
331.9 K	0.000345 ± 0.00014
336.5 K	0.000528 ± 0.00021
336.6 K	0.00054 ± 0.00022
337.8 K	0.000596 ± 0.00024
337.9 K	0.000599 ± 0.00024
342.7 K	0.000937 ± 0.00038
342.8 K	0.000952 ± 0.00038

c1ccc2c(c1)[nH]c1cnccc12 [9H-pyrido[3,4-b]indole]
Conditions	vapor or sublimation pressure [kPa]
352.8 K	5.7e-06 ± 7.4e-07
363.8 K	1.74e-05 ± 1.9e-06
367.9 K	2.56e-05 ± 2.9e-06
368.1 K	2.72e-05 ± 3.1e-06
370.3 K	3.37e-05 ± 3.9e-06
371.4 K	4.16e-05 ± 4.7e-06
371.5 K	4.16e-05 ± 4.7e-06
374.1 K	5.03e-05 ± 5.7e-06
374.4 K	5.45e-05 ± 6.1e-06
378.2 K	7.53e-05 ± 8.4e-06
381.8 K	0.000103 ± 1.2e-05
382 K	0.000107 ± 1.2e-05
382.2 K	0.000108 ± 1.2e-05
385.4 K	0.000141 ± 1.9e-05
385.9 K	0.000155 ± 2e-05
389.2 K	0.000218 ± 2.4e-05
389.4 K	0.000229 ± 2.6e-05

ON=C1c2ccccc2-c2ccccc21 [9-oximinofluorene]
Conditions	vapor or sublimation pressure [kPa]
374.5 K	0.000175 ± 1.9e-05
376.6 K	0.000198 ± 2.2e-05
378.5 K	0.000231 ± 2.5e-05
382.6 K	0.000302 ± 3.4e-05
383.2 K	0.000317 ± 3.5e-05
386.2 K	0.000385 ± 4.2e-05
387.9 K	0.000428 ± 4.6e-05
389.9 K	0.000474 ± 5.2e-05
393.8 K	0.000613 ± 6.7e-05
395.2 K	0.000671 ± 7.3e-05
398.6 K	0.000816 ± 8.8e-05

O=C1c2ccccc2C(=O)c2ccccc21 [9,10(9H,10H)-anthracenedione]
Conditions	vapor or sublimation pressure [kPa]
346 K	4.49e-06 ± 6.7e-07
359.9 K	2.09e-05 ± 2.3e-06
360.9 K	2.2e-05 ± 2.4e-06
362.7 K	2.52e-05 ± 2.9e-06
367.4 K	4.1e-05 ± 4.6e-06
369.9 K	5.42e-05 ± 6.5e-06
377.6 K	0.000119 ± 1.4e-05
379.2 K	0.000144 ± 1.6e-05
380.1 K	0.000149 ± 1.6e-05
385.4 K	0.000267 ± 3e-05
385.8 K	0.000263 ± 3.3e-05
386.8 K	0.000305 ± 3.6e-05
392.7 K	0.000493 ± 5.4e-05
392.8 K	0.000494 ± 5.5e-05
393.4 K	0.000519 ± 5.8e-05
399.2 K	0.000872 ± 0.0001
399.9 K	0.000948 ± 0.00011

c1ccc2c(c1)Nc1ccccc1O2 [phenoxazine]
Conditions	vapor or sublimation pressure [kPa]
329.7 K	2.81e-05 ± 3.5e-06
336.7 K	5.94e-05 ± 6.8e-06
340.9 K	0.000102 ± 1.2e-05
344.9 K	0.000164 ± 1.9e-05
345.1 K	0.000164 ± 1.8e-05
346.9 K	0.000196 ± 2.2e-05
348.2 K	0.00022 ± 2.5e-05
352.9 K	0.000345 ± 3.9e-05
353.1 K	0.000363 ± 4e-05
356.7 K	0.000483 ± 5.5e-05
360.9 K	0.000748 ± 8.5e-05
364.5 K	0.00107 ± 0.00014

OC1c2ccccc2-c2ccccc21 [9H-fluoren-9-ol]
Conditions	vapor or sublimation pressure [kPa]
326.1 K	2.1e-05 ± 2.4e-06
327.5 K	2.44e-05 ± 2.8e-06
329.8 K	3.15e-05 ± 3.6e-06
331.3 K	3.74e-05 ± 4.3e-06
334.9 K	5.12e-05 ± 6.1e-06
340.9 K	0.000101 ± 1.1e-05
342.6 K	0.000115 ± 1.3e-05
343.6 K	0.000123 ± 1.4e-05
344.7 K	0.000144 ± 1.6e-05
346.1 K	0.000159 ± 1.8e-05
347.4 K	0.000186 ± 2.2e-05
351.2 K	0.000276 ± 3.1e-05
355.1 K	0.000402 ± 4.5e-05
358.7 K	0.00056 ± 6.3e-05
361.9 K	0.00074 ± 8.3e-05
366.1 K	0.00103 ± 0.00013
